According to US5840728A, “Conformationally locked nucleoside analogs as antiherpetic agents” (priority 1997, dated 1998):
Values after ≈ are worked out from the molar mass of the structure shown. Read-outs that look alike come from different tables or passages of the source. Values belong to the compound of their own block, whether it stands above or below them.

How the values were obtained:
[1] = system: HCMV (human cytomegalovirus); assay: microbe, parasite or virus in culture; assay type: cell-based
[2] = Cytotoxicity in host cells / stationary cells (HFF); assay type: cell-based, human; details: human, hff cells
Source text: (§1) ^d CC50 = cytotoxic concentration in μg/mL that produces 50%

Growing HFF = assay: Cytotoxicity in growing (rapidly dividing) HFF; assay type: cell-based, human; details: in words; rapidly proliferating vs stationary cells
[3] = Cytotoxicity in growing (rapidly dividing) HFF; assay type: cell-based, human; details: human, growing hff cells, read-out: CC50
[4] = system: HCMV (human cytomegalovirus); assay: microbe, parasite or virus in culture; assay type: cell-based; details: for EC50: Human betaherpesvirus 5, Table 5, HCMV, plaque reduction assay
Source text: | ^f plaque reduction assay.

[5] = system: adenosine deaminase (ADA); assay: Adenosine deaminase studies (deamination by ADA); assay type: biochemical
Description: (§2) At timed intervals, 50 µl aliquots were quenched with 450 μl water containing the ADA inhibitor deoxycoformycin (4 μM). Hydrolysis kinetics of 4 were followed by high performance liquid chromatography (HPLC) with on-the-fly UV spectral characterization of all chromatographic components. […] The hydrolysis rate constant (k/ADA) and t^1/2 of decay or formation were obtained using GraphPAD Inpiot curve fitting program.

[6] = Adenosine deaminase studies (deamination by ADA); assay type: biochemical; details: adenosine deaminase; 50 μM compound; 1.0 unit ADA; 37° C., pH 7.1; read-out: t1/2 of deamination
Description: as §2

EBV (Epstein-Barr virus) = assay: microbe, parasite or virus in culture; assay type: cell-based; details: for EC50: human gammaherpesvirus 4, read-out: EC50; for anti-EBV activity relative to acyclovir / EC50: EBV; for activity against EBV: in words
Source text: (§3) Compounds 25 and 26 are (S)-methanocarba-T and (±)-(carba-T), respectively. (±)-carba-T was kindly provided by Dr. Y. Fulmer Shealy, Southern Research Institute, Birmingham, Ala. [drawing 5]

[7] = system: HSV-1 (herpes simplex type 1); assay: microbe, parasite or virus in culture; details: for EC50: HSV-1; for activity against HSV-1: in words
Source text: as §3

[8] = system: HSV-2 (herpes simplex type 2); assay: microbe, parasite or virus in culture; details: for EC50: HSV-2; for activity against HSV-2: in words
Source text: as §3

[9] = system: S-adenosylhomocysteine hydrolase (AdoHcy-ase); assay: Inhibition of S-adenosylhomocysteine hydrolase; assay type: biochemical
[10] = Cytotoxicity in EBV host cells (Daudi); assay type: cell-based; details: human
herpes viruses = assay: Antiherpetic activity, overall; assay type: cell-based; details: in words
[11] = system: HFF (human foreskin fibroblasts); assay: Cytotoxicity in host cells / stationary cells (HFF); assay type: cell-based; details: Table 5; host cell not given; listed as (N)-DMC-G
Source text: as §1

[12] = Human betaherpesvirus 5, Table 5, HCMV, read-out: EC50
[13] = Human alphaherpesvirus 1, Table 5
[14] = Human alphaherpesvirus 2, Table 5

Compound: Nc1ncnc2c1ncn2[C@H]1C[C@H](O)[C@]2(CO)C[C@H]12 [Compound 4, (1 R,2S,4S,5S)-1-Hydroxymethyl-2-hydroxM-4-(6-amino-9-purinyl)bicyclo[3.1.0]hexane]
SI (CC50/EC50) [1]: > 32.2
potency against HCMV relative to gancyclovir ([1]; HCMV): only ten fold less potent than gancyclovir
antiviral selectivity ([1]; HCMV, compared with gancyclovir, in words): superibor to that of gancyclovir
EC50 ([1]; Human betaherpesvirus 5, Table 3, HCMV, HFF, read-out: EC50): 3.1 µg/mL (≈ 11.9 µM)
EC50 [1, 12]: 3.1 µg/mL (≈ 11.9 µM)
EC50 ([1]; Human betaherpesvirus 5, text, HCMV, read-out: EC50): 3.1 µg/mL (≈ 11.9 µM)
activity against HCMV ([1]; in words, listed as (N)-methanocarba-A): exhibited antiviral effects against Human CMV, EBV and HSV-2
CC50 ([2]; Table 3, HFF): > 100 µg/mL
CC50 ([2]; Table 5, host cell not given): > 100 µg/mL
cytotoxicity to rapidly dividing cells (Growing HFF): equally non-toxic to rapidly proliferating cells and stationary cells
CC50 ([3]; Table 3, Growing HFF): > 100 µg/mL
EC50 ([4]; read-out: EC50): 5.6 µg/mL (≈ 21.4 µM)
SI (CC50/EC50) ([4]; human foreskin fibroblasts): > 17.9
time to complete deamination ([5]; 50 μM compound, 1.0 unit ADA, 37° C., pH 7.1): 30 min
deamination by ADA ([5]; in words): complete deamination
half-life at 50 µM [6]: 3.2 min
SI (CC50/EC50) (EBV (Epstein-Barr virus)): > 66.7
anti-EBV activity relative to acyclovir (EBV (Epstein-Barr virus)): only fifteen fold weaker than acyclovir
EC50 (EBV (Epstein-Barr virus)): 1.5 µg/mL (≈ 5.74 µM)
EC50 (EBV (Epstein-Barr virus); Table 3, Daudi, viral capsid antigen): 1.5 µg/mL (≈ 5.74 µM)
activity against EBV (EBV (Epstein-Barr virus); listed as (N)-methanocarba-A): exhibited antiviral effects against Human CMV, EBV and HSV-2
SI (CC50/EC50) [7]: > 1.4
EC50 ([7]; Human alphaherpesvirus 1, Table 3, HFF): 72 µg/mL (≈ 276 µM)
EC50 [7, 13]: 72 µg/mL (≈ 276 µM)
activity against HSV-1 [7]: weak level of activity
SI (CC50/EC50) [8]: > 7.2
EC50 ([8]; Human alphaherpesvirus 2, Table 3, HFF): 13.9 µg/mL (≈ 53.2 µM)
EC50 [8, 14]: 13.9 µg/mL (≈ 53.2 µM)
activity against HSV-2 ([8]; listed as (N)-methanocarba-A): exhibited antiviral effects against Human CMV, EBV and HSV-2
inhibition ([9]; at 100 μM): 20%
inhibition ([9]; at 100 FM concentration (so in the source)): 20%
activity against AdoHcy-ase ([9]; in words): very low
CC50 ([10]; Table 3, Daudi): > 100 µg/mL

Compound: O=c1ccn([C@H]2C[C@H](O)[C@]3(CO)C[C@H]23)c(=O)[nH]1 [Compound 21, (1R,2S,4S,5S)-1-(Hydroxymethyl)-2-hydroxy-4-(2,4-(1H,3H)-dioxopvrimidin-1-yl)bicyclor3.1.Olhexane]
SI (CC50/EC50) [1]: 1
EC50 [1, 12]: > 100 µg/mL
activity against HCMV ([1]; in words): inactive against all three viruses
CC50 ([2]; Table 5, host cell not given): > 100 µg/mL
SI (CC50/EC50) [7]: 1
EC50 [7, 13]: > 100 µg/mL
activity against HSV-1 [7]: inactive against all three viruses
SI (CC50/EC50) [8]: 1
EC50 [8, 14]: > 100 µg/mL
activity against HSV-2 [8]: inactive against all three viruses

Compound: Cc1cn([C@@]23C[C@H](O)[C@@H](CO)[C@@H]2C3)c(=O)[nH]c1=O [Compound 25, (S)-methanocarba-T, reference compound]
antiherpetic activity (herpes viruses): did not exhibit antiherpetic activity
CC50 ([2]; stationary cells): > 100 µg/mL
CC50 ([3]; rapidly dividing cells): > 100 µg/mL
SI (CC50/EC50) [7]: 1
SI (CC50/EC50) [8]: 1

Compound: Nc1nc(O)c2ncn(COC(CO)CO)c2n1 [GCV, gancyclovir]
EC50 ([1]; Human betaherpesvirus 5, Table 3, HCMV, HFF, positive control, read-out: Positive Control EC50): 0.3 µg/mL (≈ 1.18 µM)
cytotoxicity to rapidly dividing cells (Growing HFF): increased cytotoxicity towards rapidly dividing cells
CC50 ([3]; rapidly dividing cells): 40 µg/mL (≈ 157 µM)
EC50 ([4]; control, read-out: Control EC50): 0.2 µg/mL (≈ 0.784 µM)

More lines, main results first:

EC50 (EBV (Epstein-Barr virus); Table 4): 0.45 µg/mL (≈ 1.78 µM)
EC50 ([7]; Human alphaherpesvirus 1, Table 4, plaques reduced by 50%): 0.01 µg/mL (≈ 0.0396 µM)
EC50 ([8]; Human alphaherpesvirus 2, Table 4, plaques reduced by 50%): 0.12 µg/mL (≈ 0.476 µM)
Compound: Cc1cn([C@H]2C[C@H](O)[C@]3(CO)C[C@H]23)c(=O)[nH]c1=O [Compound 20]
activity relative to acyclovir (herpes viruses; HSV-1 and HSV-2): stronger than observed with acyclovir
CC50 ([2]; Table 4, HSV-1 and HSV-2 lines, host cell not given): > 20 µg/mL
CC50 ([2]; stationary cells): > 100 µg/mL
CC50 ([3]; rapidly dividing cells): 32.9 µg/mL (≈ 130 µM)
SI (CC50/EC50) (EBV (Epstein-Barr virus)): > 222
anti-EBV activity relative to acyclovir (EBV (Epstein-Barr virus)): not as strong as ACV
activity against EBV (EBV (Epstein-Barr virus)): significant anti-EBV activity
activity against EBV (EBV (Epstein-Barr virus); listed as N-methanocarba-T): effective against HSV-1, HSV-2 and EBV
SI (CC50/EC50) [7]: > 2000
activity against HSV-1 [7]: strong activity
activity against HSV-1 ([7]; listed as N-methanocarba-T): effective against HSV-1, HSV-2 and EBV
SI (CC50/EC50) [8]: > 167
activity against HSV-2 [8]: strong activity
activity against HSV-2 ([8]; listed as N-methanocarba-T): effective against HSV-1, HSV-2 and EBV
CC50 ([10]; Table 4, EBV line, host cell not given): > 100 µg/mL

EC50 [1, 12]: > 4 µg/mL
EC50 [7, 13]: 0.14 µg/mL (≈ 0.59 µM)
EC50 [8, 14]: > 20 µg/mL
Compound: Nc1ccn([C@H]2C[C@H](O)[C@]3(CO)C[C@H]23)c(=O)n1 [Compound 22]
SI (CC50/EC50) [1]: < 2.2
activity against HCMV ([1]; in words): active against HCMV
SI (CC50/EC50) [7]: 486
activity against HSV-1 [7]: very active against HSV-1
SI (CC50/EC50) [8]: < 4.8
activity against HSV-2 [8]: Little activity

EC50 [1, 12]: > 20 µg/mL
EC50 [7, 13]: 4 µg/mL (≈ 14.4 µM)
EC50 [8, 14]: 9.9 µg/mL (≈ 35.7 µM)
Compound: Nc1nc2c(ncn2[C@H]2C[C@H](O)[C@]3(CO)C[C@H]23)c(=O)[nH]1 [Compound 24]
SI (CC50/EC50) [1]: < 3.2
activity against HCMV ([1]; in words): little activity against HCMV
CC50 ([2]; Table 5, host cell not given): > 100 µg/mL
CC50 [11]: 64.3 µg/mL (≈ 232 µM)
SI (CC50/EC50) [7]: > 25
activity against HSV-1 [7]: active against HSV-1 and HSV-2
SI (CC50/EC50) [8]: > 10.1
activity against HSV-2 [8]: active against HSV-1 and HSV-2
